Experimental data as given in ChEMBL document CHEMBL1275576, “In vitro activity of tomopenem (CS-023/RO4908463) against anaerobic bacteria” (Antimicrob Agents Chemother, 2009).

Tests used:
Assay type in all cases: functional
[1] = test system: Desulfovibrio desulfuricans; test: Antimicrobial activity against Desulfovibrio desulfuricans by agar dilution method in presence of 5% laked sheep blood
Eubacterium limosum = test: Antimicrobial activity against Eubacterium limosum by agar dilution method in presence of 5% laked sheep blood
[2] = test system: Parabacteroides distasonis; test: Antimicrobial activity against Parabacteroides distasonis by agar dilution method in presence of 5% laked sheep blood
Phocaeicola vulgatus = test: Antimicrobial activity against Bacteroides vulgatus by agar dilution method in presence of 5% laked sheep blood
Prevotella sp. = test: Antimicrobial activity against Prevotella sp. by agar dilution method in presence of 5% laked sheep blood
Bacteroides fragilis = test: Antimicrobial activity against Bacteroides fragilis by agar dilution method in presence of 5% laked sheep blood
Finegoldia magna = test: Antimicrobial activity against Finegoldia magna by agar dilution method in presence of 5% laked sheep blood

Structure (SMILES)	MIC50 [1]	MIC90 [1]	MIC50 (Eubacterium limosum)	MIC90 (Eubacterium limosum)	MIC50 [2]	MIC90 [2]	MIC50 (Phocaeicola vulgatus)	MIC90 (Phocaeicola vulgatus)	MIC50 (Prevotella sp.)	MIC90 (Prevotella sp.)	MIC50 (Bacteroides fragilis)	MIC90 (Bacteroides fragilis)	MIC50 (Finegoldia magna)	MIC90 (Finegoldia magna)
CC(=N)N1CC[C@H](SC2=C(C(=O)O)N3C(=O)[C@H]([C@@H](C)O)[C@H]3C2)C1	0.5 µg/mL	1 µg/mL	1 µg/mL	2 µg/mL	1 µg/mL	4 µg/mL	1 µg/mL	4 µg/mL	0.125 µg/mL	0.25 µg/mL	0.25 µg/mL	8 µg/mL	0.25 µg/mL	0.5 µg/mL
C[C@@H](O)[C@H]1C(=O)N2C(C(=O)O)=C(S[C@@H]3CN[C@H](CNS(N)(=O)=O)C3)[C@H](C)[C@H]12 [DORIPENEM]	0.125 µg/mL	0.25 µg/mL	0.25 µg/mL	0.25 µg/mL	0.5 µg/mL	4 µg/mL	0.5 µg/mL	4 µg/mL	0.06 µg/mL	0.125 µg/mL	0.25 µg/mL	0.5 µg/mL	0.125 µg/mL	0.25 µg/mL
C[C@@H](O)[C@H]1C(=O)N2C(C(=O)O)=C(S[C@@H]3CN[C@H](C(=O)N(C)C)C3)[C@H](C)[C@H]12 [MEROPENEM]	0.06 µg/mL	0.125 µg/mL	0.5 µg/mL	1 µg/mL	0.25 µg/mL	4 µg/mL	0.25 µg/mL	4 µg/mL	0.125 µg/mL	0.25 µg/mL	0.25 µg/mL	0.5 µg/mL	0.125 µg/mL	0.125 µg/mL
Cc1ncc([N+](=O)[O-])n1CCO [METRONIDAZOLE]	0.125 µg/mL	0.25 µg/mL	0.5 µg/mL	0.5 µg/mL	0.5 µg/mL	1 µg/mL	0.5 µg/mL	1 µg/mL	1 µg/mL	2 µg/mL	0.5 µg/mL	1 µg/mL	0.5 µg/mL	1 µg/mL
C[C@@H](O)[C@H]1C(=O)N2C(C(=O)O)=C(S[C@H]3C[C@@H](C(=O)N4CC[C@H](NC(=O)CNC(=N)N)C4)N(C)C3)[C@H](C)[C@H]12 [TOMOPENEM]	0.125 µg/mL	0.5 µg/mL	0.5 µg/mL	0.5 µg/mL	0.5 µg/mL	4 µg/mL	0.5 µg/mL	4 µg/mL	0.125 µg/mL	0.5 µg/mL	0.25 µg/mL	1 µg/mL	0.06 µg/mL	0.125 µg/mL
